Measurements: article PMC9293909 (Nature Communications, 2022)
“And” between values parts separate entries of the source, which are not always exact repeats. Identical values can stand only once. Like-named read-outs stand apart in the source and are kept apart here.

How the values were obtained:
[1] = test system: neuropathic pain (paw withdrawal threshold); assay: Spinal nerve ligation (Chung model), mechanical allodynia, von Frey; type: in vivo, rat
Description: Adult male Sprague–Dawley rats, 7-8 weeks old, weighing around 250 g at the time of Chung model surgery, were purchased from Charles River UK Ltd. The animals were housed in groups of 4 in an air-conditioned room on a 12-hour light/dark cycle. Food and water were available ad libitum. They were allowed to acclimatise to the experimental environment for three days by leaving them on a raised metal mesh for at least 40 min. The baseline paw withdrawal threshold (PWT) was examined using a series of graduated von Frey hairs (see below) for 3 consecutive days before surgery and re-assessed on the 6th to 8th day after surgery and on the 13th to 17th day after surgery before drug dosing.
Prior to surgery each rat was anaesthetised with 3% isoflurane mixed with oxygen (2 L min^−1) followed by an intramuscular injection of ketamine (60 mg kg^−1) plus xylazine (10 mg kg^−1). The back was shaved and sterilised with povidone-iodine. The animal was placed in a prone position and a para-medial incision was made on the skin covering the L4-6 level. The L5 spinal nerve was carefully isolated and tightly ligated with 6/0 silk suture. The wound was then closed in layers after a complete haemostasis. A single-dose of antibiotics (Amoxipen, 15 mg/rat, intraperitoneally, IP) was routinely given for prevention of infection after surgery. The animals were placed in a temperature-controlled recovery chamber until fully awake before being returned to their home cages. The vehicle (normal saline or DMSO) was administered via the IV route at 1 ml·kg^−1 and via the intrathecal (IT) route at 10 µl for each injection. […] To test for mechanical allodynia the animals were placed in individual Perspex boxes on a raised metal mesh for at least 40 min before the test. Starting from the filament of lower force, each filament was applied perpendicularly to the centre of the ventral surface of the paw until slightly bent for 6 seconds. If the animal withdrew or lifted the paw upon stimulation, then a hair with force immediately lower than that tested was used. If no response was observed, then a hair with force immediately higher was tested. […] The animals were returned to their home cages to rest (about 30 min) between two neighbouring testing time points. At the end of each experiment, the animals were deeply anaesthetised with isoflurane and killed by decapitation.

[2] = test system: heart rate and mean arterial blood pressure; assay: Urethane-anaesthetised rat, heart rate and arterial blood pressure; conditions: for HR / HR, Average / MAP, Average: Fig6e
Description: Anaesthesia was induced in adult male Sprague–Dawley rats (230-330 g) with isofluorane (2–4%; Piramal Healthcare). The femoral vein was catheterised for drug delivery. Anaesthesia was maintained with urethane (1.2–1.7 g kg^−1; Sigma) in sterile saline delivered via the femoral vein catheter. […] The trachea was cannulated and the femoral artery catheterised, and both were connected to pressure transducers (Digitimer) to record respiratory airflow and arterial blood pressure, respectively. Blood pressure and airflow signals were amplified using the NeuroLog system (Digitimer) connected to a micro1401 interface and acquired on a computer using Spike2 software (v7.08a; Cambridge Electronic Design). […] Airflow measurements were used to calculate: tidal volume (VT; mL; pressure sensors were calibrated with a 3 mL syringe), and respiratory frequency (f; breaths min^−1; BrPM). Minute ventilation (VE; mL min^−1) was calculated as f × VT.
Cardiovascular and respiratory parameters were allowed to stabilise before experiments began. A1R agonists were administered by intravenous (IV) injection and the changes in HR, MAP, f, VT, and VE were measured. […] All injections were administered IV as a 350 µl·kg^-1 bolus.

[3] = Half-life determination in PBS; type: physicochemical; conditions: for 1st / % Compound Remaining / 2nd / % Compound Remaining / Mean / % Compound Remaining: PBS, pH 7.4; for half-life: buffer, pH 7.4, PBS
Description: […] Samples were analysed by HPLC-MS/MS and corresponding peak areas were recorded for each analyte. The ratio of precursor compound remaining after each time-point relative to the amount present at time 0, expressed as a percentage, is reported as chemical stability.

respiration (f, VT, VE) = assay: Urethane-anaesthetised rat, respiration; conditions: Fig6e
Description: The femoral vein was catheterised for drug delivery.
Adult male Sprague–Dawley rats (400-500 g) were anaesthetised with urethane and instrumented as described above, with the exception that the arterial cannulation was not performed.
Changes in f, VT, and VE were measured. If the dosing occurred close to a respiratory event such as a sigh a second IV dose was administered, with 20 min recovery periods either side of the injection.

[4] = antagonist group, 1h after dosing
[5] = antagonist group, 2h after dosing
[6] = antagonist group, 4h after dosing
[7] = incubation 0 minutes, UoBern01 at 1.00E-06 M
[8] = incubation 60 minutes, UoBern01 at 1.00E-06 M
[9] = incubation 120 minutes, UoBern01 at 1.00E-06 M

SMILES: CCCOC(=O)c1c(-c2ccccc2)nc(CC)c(C(=O)SCC)c1CCC [MRS1523]
- effect on analgesia caused by BnOCPA ([1]; MRS1523 2 mg kg^−1 IP, BnOCPA 6 µg kg^−1 IV): had no effect on the analgesia caused by BnOCPA
- paw withdrawal threshold, Average (Fig7d) [1, 4]: 13.6
- paw withdrawal threshold, individual animals (Fig7d) [1, 4]: 15 and 8
- paw withdrawal threshold, Average (Fig7d) [1, 5]: 14.0
- paw withdrawal threshold, individual animals (Fig7d) [1, 5]: 15 and 10
- paw withdrawal threshold, Average (Fig7d) [1, 6]: 12.2
- paw withdrawal threshold, individual animals (Fig7d) [1, 6]: 15 and 10 and 6

SMILES: Nc1ncnc2c1ncn2[C@@H]1O[C@H](CO)[C@@H](O)[C@H]1O [ado]
- heart rate ([2]; Fig5c, individual rat): 179 and 147 and 138 and 122
- heart rate, Average ([2]; Fig5c, n 4): 147
- mean arterial blood pressure ([2]; Fig5d, individual rat): 56 and 36 and 42 and 48
- mean arterial blood pressure, Average ([2]; Fig5d, n 4): 46

SMILES: O=C(O)CCCc1ccc(N(CCCl)CCCl)cc1 [Chlorambucil]
- 1st / % Compound Remaining [3, 7]: 100%
- 2nd / % Compound Remaining [3, 7]: 100%
- Mean / % Compound Remaining [3, 7]: 100%
- 1st / % Compound Remaining ([3]; incubation 30 minutes): 68.5%
- 2nd / % Compound Remaining ([3]; incubation 30 minutes): 81.3%
- Mean / % Compound Remaining ([3]; incubation 30 minutes): 74.9%
- 1st / % Compound Remaining [3, 8]: 45.8%
- 2nd / % Compound Remaining [3, 8]: 52.3%
- Mean / % Compound Remaining [3, 8]: 49.1%
- 1st / % Compound Remaining ([3]; incubation 90 minutes): 27.3%
- 2nd / % Compound Remaining ([3]; incubation 90 minutes): 31%
- Mean / % Compound Remaining ([3]; incubation 90 minutes): 29.2%
- 1st / % Compound Remaining [3, 9]: 11%
- 2nd / % Compound Remaining [3, 9]: {17.7} %
- Mean / % Compound Remaining [3, 9]: 11%
- half-life ([3]; UoBern01 at 1.00E-06 M, read-out: 1st / Half-Life): 39 min
- half-life ([3]; UoBern01 at 1.00E-06 M, read-out: 2nd / Half-Life): 52.6 min
- half-life ([3]; UoBern01 at 1.00E-06 M, read-out: Mean / Half-Life): 46 min

SMILES: CCCn1c(=O)c2[nH]c(C3CCCC3)nc2n(CCC)c1=O [DPCPX]
- effect on reversal of mechanical allodynia by BnOCPA ([1]; DPCPX 1 mg kg^−1 IP, BnOCPA 6 µg kg^−1 IV): prevented the reversal of mechanical allodynia by BnOCPA
- paw withdrawal threshold, Average (Fig7d) [1, 4]: 4.0
- paw withdrawal threshold, individual animals (Fig7d) [1, 4]: 6 and 4 and 2
- paw withdrawal threshold, Average (Fig7d) [1, 5]: 4.0
- paw withdrawal threshold, individual animals (Fig7d) [1, 5]: 6 and 4 and 2
- paw withdrawal threshold, Average (Fig7d) [1, 6]: 4.7
- paw withdrawal threshold, individual animals (Fig7d) [1, 6]: 6 and 4 and 2

SMILES: OC[C@H]1O[C@@H](n2cnc3c(N[C@@H]4CCC[C@H]4OCc4ccccc4)ncnc32)[C@H](O)[C@@H]1O [B]
- HR ([2]; dose group B 8, individual rat): 406 and 368 and 425 and 416 and 331 and 340 and 420 and 470
- HR, Average ([2]; dose group B 8, n 8): 397.0
- MAP, Average ([2]; dose group B 8, n 8): 111.3
- HR ([2]; dose group B 17, individual rat): 369 and 385 and 301 and 313
- HR, Average ([2]; dose group B 17, n 4): 342.0
- MAP, Average ([2]; dose group B 17, n 4): 115.8
- HR ([2]; dose group B 25, individual rat): 362 and 382 and 312 and 305
- HR, Average ([2]; dose group B 25, n 4): 340.3
- MAP, Average ([2]; dose group B 25, n 4): 113.5
- Freq, Average (respiration (f, VT, VE); dose group B 8, n 12): 166.9
- Freq, Average (respiration (f, VT, VE); dose group B 17, n 4): 189.3
- Freq, Average (respiration (f, VT, VE); dose group B 25, n 4): 209.0

SMILES: OC[C@H]1O[C@@H](n2cnc3c(NC4CCCC4OCc4ccccc4)ncnc32)[C@H](O)[C@@H]1O (stereo partly drawn) [BnOCPAA]
- paw withdrawal threshold, individual animals (Fig7d) ([1]; 6ug, 1h after dosing): 8
- paw withdrawal threshold, Average (Fig7d) ([1]; 6ug, 1h after dosing, n 11): 9.8
- paw withdrawal threshold, individual animals (Fig7d) ([1]; 6ug, 2h after dosing): 8
- paw withdrawal threshold, Average (Fig7d) ([1]; 6ug, 2h after dosing, n 11): 12.6
- paw withdrawal threshold, individual animals (Fig7d) ([1]; 6ug, 4h after dosing): 8
- paw withdrawal threshold, Average (Fig7d) ([1]; 6ug, 4h after dosing, n 11): 9.8
